Experimental data reported in the NIST ThermoML archive (doi:10.1021/je900916e).
± gives the expanded uncertainty stated by the source.

Test: cn = amount concentration of the nth substance listed, in mol/dm3
Settings: 101 kPa, Liquid, Advanced Condctivity Orion 162A

Compound N.O=C(O)C(F)(F)C(F)(F)C(F)(F)C(F)(F)C(F)(F)C(F)(F)C(F)(F)F [ammonium perfluorooctanoate] + O has an electrical conductivity (288.15 K, c1 = 0.002632) of 0.019 ± 0.0001 S/m, an electrical conductivity (288.15 K, c1 = 0.005195) of 0.0351 ± 0.0001 S/m and an electrical conductivity (288.15 K, c1 = 0.007692) of 0.051 ± 0.0001 S/m. It also gave an electrical conductivity (288.15 K, c1 = 0.01013) of 0.0665 ± 0.0001 S/m, an electrical conductivity (288.15 K, c1 = 0.0125) of 0.0805 ± 0.0002 S/m and an electrical conductivity (288.15 K, c1 = 0.01481) of 0.0943 ± 0.0002 S/m. The electrical conductivity (288.15 K, c1 = 0.01707) was 0.1074 ± 0.0002 S/m, the electrical conductivity (288.15 K, c1 = 0.01928) was 0.1198 ± 0.0002 S/m and the electrical conductivity (288.15 K, c1 = 0.02143) was 0.1318 ± 0.0003 S/m. For the same compound, the electrical conductivity (288.15 K, c1 = 0.02353) was 0.1429 ± 0.0003 S/m, the electrical conductivity (288.15 K, c1 = 0.02558) was 0.1533 ± 0.0003 S/m and the electrical conductivity (288.15 K, c1 = 0.02759) was 0.163 ± 0.0003 S/m. For the same compound, the electrical conductivity (288.15 K, c1 = 0.02955) was 0.1691 ± 0.0003 S/m, the electrical conductivity (288.15 K, c1 = 0.03146) was 0.174 ± 0.0004 S/m and the electrical conductivity (288.15 K, c1 = 0.03333) was 0.1785 ± 0.0004 S/m. It also gave an electrical conductivity (288.15 K, c1 = 0.03516) of 0.1828 ± 0.0004 S/m, an electrical conductivity (288.15 K, c1 = 0.03696) of 0.187 ± 0.0004 S/m and an electrical conductivity (288.15 K, c1 = 0.03957) of 0.1926 ± 0.0004 S/m. For the same compound, the electrical conductivity (288.15 K, c1 = 0.04211) was 0.1982 ± 0.0004 S/m, the electrical conductivity (288.15 K, c1 = 0.04456) was 0.2036 ± 0.0004 S/m and the electrical conductivity (288.15 K, c1 = 0.04694) was 0.209 ± 0.0004 S/m. It also gave an electrical conductivity (288.15 K, c1 = 0.05) of 0.2155 ± 0.0004 S/m, an electrical conductivity (288.15 K, c1 = 0.05294) of 0.2216 ± 0.0004 S/m and an electrical conductivity (288.15 K, c1 = 0.05577) of 0.2275 ± 0.0005 S/m. It also gave an electrical conductivity (293.15 K, c1 = 0.002632) of 0.021 ± 0.0001 S/m, an electrical conductivity (293.15 K, c1 = 0.005195) of 0.0402 ± 0.0001 S/m and an electrical conductivity (293.15 K, c1 = 0.007692) of 0.0582 ± 0.0001 S/m. It also gave an electrical conductivity (293.15 K, c1 = 0.01013) of 0.0753 ± 0.0002 S/m, an electrical conductivity (293.15 K, c1 = 0.0125) of 0.092 ± 0.0002 S/m and an electrical conductivity (293.15 K, c1 = 0.01481) of 0.1078 ± 0.0002 S/m. For the same compound, the electrical conductivity (293.15 K, c1 = 0.01707) was 0.1224 ± 0.0003 S/m, the electrical conductivity (293.15 K, c1 = 0.01928) was 0.1364 ± 0.0003 S/m and the electrical conductivity (293.15 K, c1 = 0.02143) was 0.1498 ± 0.0003 S/m. The electrical conductivity (293.15 K, c1 = 0.02353) was 0.1625 ± 0.0003 S/m, the electrical conductivity (293.15 K, c1 = 0.02558) was 0.1735 ± 0.0004 S/m and the electrical conductivity (293.15 K, c1 = 0.02759) was 0.1815 ± 0.0004 S/m. It also gave an electrical conductivity (293.15 K, c1 = 0.02955) of 0.1888 ± 0.0004 S/m, an electrical conductivity (293.15 K, c1 = 0.03146) of 0.1942 ± 0.0004 S/m and an electrical conductivity (293.15 K, c1 = 0.03333) of 0.1995 ± 0.0004 S/m. The electrical conductivity (293.15 K, c1 = 0.03516) was 0.2045 ± 0.0004 S/m, the electrical conductivity (293.15 K, c1 = 0.03696) was 0.209 ± 0.0004 S/m and the electrical conductivity (293.15 K, c1 = 0.03957) was 0.216 ± 0.0004 S/m. For the same compound, the electrical conductivity (293.15 K, c1 = 0.04211) was 0.222 ± 0.0004 S/m, the electrical conductivity (293.15 K, c1 = 0.04536) was 0.231 ± 0.0005 S/m and the electrical conductivity (293.15 K, c1 = 0.04848) was 0.239 ± 0.0005 S/m. It also gave an electrical conductivity (293.15 K, c1 = 0.05149) of 0.247 ± 0.0005 S/m, an electrical conductivity (293.15 K, c1 = 0.05437) of 0.2545 ± 0.0005 S/m and an electrical conductivity (298.15 K, c1 = 0.002817) of 0.0241 ± 0.0001 S/m. The electrical conductivity (298.15 K, c1 = 0.005556) was 0.0457 ± 0.0001 S/m, the electrical conductivity (298.15 K, c1 = 0.008219) was 0.0665 ± 0.0001 S/m and the electrical conductivity (298.15 K, c1 = 0.01081) was 0.0848 ± 0.0002 S/m. For the same compound, the electrical conductivity (298.15 K, c1 = 0.01333) was 0.1033 ± 0.0002 S/m, the electrical conductivity (298.15 K, c1 = 0.01579) was 0.1221 ± 0.0003 S/m and the electrical conductivity (298.15 K, c1 = 0.01818) was 0.1411 ± 0.0003 S/m. The electrical conductivity (298.15 K, c1 = 0.02051) was 0.1577 ± 0.0003 S/m, the electrical conductivity (298.15 K, c1 = 0.02278) was 0.1735 ± 0.0004 S/m and the electrical conductivity (298.15 K, c1 = 0.025) was 0.1884 ± 0.0004 S/m. The electrical conductivity (298.15 K, c1 = 0.02716) was 0.199 ± 0.0004 S/m, the electrical conductivity (298.15 K, c1 = 0.02927) was 0.2067 ± 0.0004 S/m and the electrical conductivity (298.15 K, c1 = 0.03132) was 0.2144 ± 0.0004 S/m. For the same compound, the electrical conductivity (298.15 K, c1 = 0.03333) was 0.2207 ± 0.0004 S/m, the electrical conductivity (298.15 K, c1 = 0.03529) was 0.2269 ± 0.0005 S/m and the electrical conductivity (298.15 K, c1 = 0.03721) was 0.2337 ± 0.0005 S/m. For the same compound, the electrical conductivity (298.15 K, c1 = 0.03908) was 0.2394 ± 0.0005 S/m, the electrical conductivity (298.15 K, c1 = 0.04091) was 0.2452 ± 0.0005 S/m and the electrical conductivity (298.15 K, c1 = 0.0427) was 0.251 ± 0.0005 S/m. The electrical conductivity (298.15 K, c1 = 0.04444) was 0.2558 ± 0.0005 S/m, the electrical conductivity (298.15 K, c1 = 0.04699) was 0.2635 ± 0.0005 S/m and the electrical conductivity (298.15 K, c1 = 0.04946) was 0.2721 ± 0.0005 S/m. It also gave an electrical conductivity (298.15 K, c1 = 0.05185) of 0.2798 ± 0.0006 S/m, an electrical conductivity (298.15 K, c1 = 0.05417) of 0.2856 ± 0.0006 S/m and an electrical conductivity (298.15 K, c1 = 0.05641) of 0.2923 ± 0.0006 S/m. It also gave an electrical conductivity (303.15 K, c1 = 0.002632) of 0.0264 ± 0.0001 S/m, an electrical conductivity (303.15 K, c1 = 0.005195) of 0.0503 ± 0.0001 S/m and an electrical conductivity (303.15 K, c1 = 0.007692) of 0.0726 ± 0.0002 S/m. It also gave an electrical conductivity (303.15 K, c1 = 0.01013) of 0.0937 ± 0.0002 S/m, an electrical conductivity (303.15 K, c1 = 0.0125) of 0.1137 ± 0.0002 S/m and an electrical conductivity (303.15 K, c1 = 0.01481) of 0.1325 ± 0.0003 S/m. The electrical conductivity (303.15 K, c1 = 0.01707) was 0.1505 ± 0.0003 S/m, the electrical conductivity (303.15 K, c1 = 0.01928) was 0.1679 ± 0.0003 S/m and the electrical conductivity (303.15 K, c1 = 0.02143) was 0.1833 ± 0.0004 S/m. It also gave an electrical conductivity (303.15 K, c1 = 0.02353) of 0.1983 ± 0.0004 S/m.
